# Assay results: US7332507B2, “3-substituted quinuclidines and their use” (Neurosearch A/S, priority 2002, dated 2008)
# Counter-ions that a name gives are not always drawn.
# Molecular target: T1, α7-subtype of nicotinic receptors (Rattus norvegicus, UniProt Q05941)
# T1 construct: Cerebral cortices from male Wistar rats (150-250 g) are homogenised; from tissue; host or cells: rat cerebral cortex membrane homogenate (male Wistar rats)
# Assay: In vitro inhibition of 3H-α-bungarotoxine binding in rat brain
# Settings: rat cerebral cortex homogenate; 3H-α-bungarotoxine 2 nM; 2 hours at 37° C.
# T1 sequence (Q05941 23-502): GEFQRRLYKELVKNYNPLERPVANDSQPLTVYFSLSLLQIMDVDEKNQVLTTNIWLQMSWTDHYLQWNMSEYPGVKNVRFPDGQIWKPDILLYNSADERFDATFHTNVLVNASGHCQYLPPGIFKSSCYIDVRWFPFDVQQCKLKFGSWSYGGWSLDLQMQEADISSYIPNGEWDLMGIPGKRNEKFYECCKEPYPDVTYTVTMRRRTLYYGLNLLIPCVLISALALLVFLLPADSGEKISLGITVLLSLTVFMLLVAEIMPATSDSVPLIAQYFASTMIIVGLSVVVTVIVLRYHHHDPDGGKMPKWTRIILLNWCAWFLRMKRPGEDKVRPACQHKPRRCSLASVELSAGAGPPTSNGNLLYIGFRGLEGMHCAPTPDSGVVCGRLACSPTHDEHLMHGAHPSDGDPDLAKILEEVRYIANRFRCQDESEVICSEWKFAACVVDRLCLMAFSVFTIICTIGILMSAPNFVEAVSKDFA
compound,measurement,value
"c1ccc2c(c1)ncn2C1CN2CCC1CC2 (racemic) [Compound A1, (±)-3-(1-Benzimidazolyl)-quinuclidine fumaric acid salt]",IC50,400 nM
